Source: patent US10898548B2, “Modulators of protein tyrosine phosphatase and uses thereof” (LEUVAS THERAPEUTICS, priority 2015, dated 2021)
Marks after values point to notes of the source that are not given here. Each block holds one substance with its values, some of them ahead of it.

Assays:
[1] = tested on: U87 GBM cells; test: VYBRANT apoptosis, U87 GBM cells; format: cell-based; settings: 0.5 μM
[2] = tested on: U251 GBM cells; test: VYBRANT DyeCycle Violet early apoptosis, U251 GBM cells; format: cell-based
Description: (§1) Cell viability and survival was measured using the MTT assay, a colorimetric assay for assessing cell metabolic activity set up under conditions where the absorption reflects the number of viable cells present (Table 21 and 22) and expressed as relative absorption at 570 nm. Early apoptosis was measured using VYBRANT DyeCycle Violet stain (Molecular Probes), a DNA-selective, cell membrane-permeant dye that can distinguish the compacted state of the nuclear chromatin in apoptotic cells as determined by flow cytometry and presented as the percent of cells that are apoptotic (Table 23 and 24). The actual number of cells following treatment with TAT-ICD or TAT alone (Table 25) was determined using flow cytometry compared to an input of 5,000 cells at time zero. To confirm apoptosis the TUNEL labeling assay, which detects DNA strand breaks in apoptotic cells by fluorescence microscopy, was also used to examine U251 cells treated with the PTPRG WD. Briefly, the assay used an optimized terminal transferase ([…]) to label 3′OH ends in genomic DNA with TMR-dUTP, thus allowing the measurement and quantification of cell death by apoptosis. U251 cells were pretreated for 1, 3 and 6 hours with 50 μM P1-WD. Then cells were fixed and permeabilized, incubated with TUNEL reaction mixture for 1 h at RT, and then stained with DAPI (for nuclei detection) and with Alexa670-Phalloidin (to detect actin in cell membranes). After the staining steps, cells were visualized with a confocal microscope.

[3] = tested on: T98G GBM cells; test: MTT survival assay, T98G GBM cells; format: cell-based, human
Description: The DBTRG-O5MG (Denver Brain Tumor Research Group 05) cell line was established from tissue from a patient with glioblastoma multiforme who had been treated with local brain irradiation and multi drug chemotherapy (Kruse C A, et al. 1992 In vitro Cell Dev Biol, 28A(9-10):609-14). U87 is a commonly studied and thoroughly characterized grade IV glioma cell line derived from malignant glioma (Clark M J, et al, 2010 Plos Genet. 6(1):e1000832.). T98G is a glioblastoma multiforme cell line extracted from a person (Stein G H, 1979, J. Cell Physiol, 99(1):43-54). Proliferation and survival were assessed following TAT-ICD or control peptide (Table 29) or the P1-WD or control peptide treatment using the MTT assay as described above. Data are relative absorption; mean and standard deviation.

[4] = tested on: normal primary cortical murine neurons; test: MTT assay, normal primary cortical neurons; format: cell-based, mouse
Description: as §1, with “Briefly, U251 GBM cells, normal primary cortical murine neurons and a mixed culture of murine microglia and astrocytes were treated for 24, 48 and 72 hours with no treatment (control), delivery peptide (P1 or TAT) or increasing concentrations of P1-WD or TAT-ICD. Cell” for “Cell”
In striking contrast, treatment of normal primary cortical neurons isolated from mouse pups treated with TAT alone or TAT-ICD for 24-72 hours (Table 26) are mean and sd of absorption using the MTT assay as described above.

[5] = tested on: DBTRG GBM cells; test: VYBRANT early apoptosis, DBTRG GBM cells; format: cell-based, human; settings: 0.5 μM
[6] = tested on: PTPRG; test: in vitro phosphatase activity (pNPP) on membranes from human primary monocytes; format: biochemical; settings: monocyte membranes, DMSO 7.25
Description: We first tested the biochemical activity of the fusion peptide by performing in vitro assays of phosphatase activity on purified membranes isolated from human primary monocytes compared to membranes isolated from human primary polymorphonuclear cells (PMNs). Human primary monocytes and polymorphonuclear (PMNs) cells were isolated from whole blood of healthy donors. Purity of monocyte preparation was evaluated by flow cytometry after staining with fluorescein isothiocyanate (FITC)-conjugated anti-CD14 antibody and was more than 95%. Isolated cells were kept at 37° C. in standard adhesion buffer (PBS, 1 mM CaCl2, 1 mM MgCl2, 10% FBS, pH 7.2) and used within 1 h.
The phosphatase activity in membrane fractions isolated from human monocytes and PMNs was assessed. […] Cells were then sonicated twice (6 sec, 15% W) and centrifuged at 2000 rpm for 10 minutes. The supernatants were collected and centrifuged at 28000 rpm for 60 minutes. After centrifugation, the supernatants were discarded, and the membrane pellets were dissolved in 20 mM tris pH 7.4. Equal amount of membrane fractions were added to pNPP buffer containing 20 mM tris, 10 mM DTT and 2 mM pNPP. Following, DMSO and peptides were added. After 30 minutes of incubation, levels of de-phosphorylation, in presence or absence of orthovanadate, were measured at 405 nm by a plate reader. Values are absorbance at 405 nn shown as percent fold increase over the blank; mean values of three experiments are shown. *p<0.001 vs vehicle (DMSO).

[7] = 0.25 uM, 24 hours, Control 1116
[8] = 0.25 uM, 48 hours, Control 1022
[9] = P1 or P1-WD 50 μM, 6 h, Control 5
[10] = P1 or P1-WD 50 μM, 9 h, Control 12
[11] = P1 or P1-WD 50 μM, 24 h, Control 8
[12] = P1 or P1-WD 50 μM, 24 hours, Control 971
[13] = P1 or P1-WD 50 μM, 48 hours, Control 1305
[14] = P1 or P1-WD 50 μM, 72 hours, Control 1481

Substance: TAT (GRKKRRQRRRPPQ; listed as Homo sapiens) [reference compound]
percent of apoptotic cells ([1]; 1 hour, Control 10): 20%
percent of apoptotic cells ([1]; 3 hours, Control 3): 10%
percent of apoptotic cells ([1]; 6 hours, Control 14): 20%
percent of apoptotic cells (early apoptosis) ([2]; TAT 50 uM, 6 hr, CTRL 4.6): 10.0%
percent of apoptotic cells (early apoptosis) ([2]; TAT 50 uM, 9 hr, CTRL 6.0): 11.0%
percent of apoptotic cells (early apoptosis) ([2]; TAT 50 uM, 24 hr, CTRL 7.0): 8.0%
absorbance in the MTT assay ([3]; TAT 500[…]μM, 24 hours, CTRL 971): 954
absorbance in the MTT assay ([3]; TAT 500[…]μM, 48 hours, CTRL 1305): 1237
absorbance in the MTT assay ([3]; TAT 500[…]μM, 72 hours, CTRL 1481): 1205
absorbance in the MTT assay ([4]; 0.1 uM, 24 hours, Control 1116): 1150
absorbance in the MTT assay ([4]; 0.1 uM, 48 hours, Control 1022): 1151
absorbance in the MTT assay ([4]; 0.1 uM, 72 hours, Control 994): 1151
absorbance in the MTT assay [4, 7]: 908
absorbance in the MTT assay [4, 8]: 955
absorbance in the MTT assay ([4]; 0.25 uM, 72 hours, Control 994): 957
absorbance in the MTT assay ([4]; 0.5 uM, 24 hours, Control 1116): 1184
absorbance in the MTT assay ([4]; 0.5 uM, 48 hours, Control 1022): 1148
absorbance in the MTT assay ([4]; 0.5 uM, 72 hours, Control 994): 1224
percent of apoptotic cells by flow cytometry ([5]; 1 h, Control 14): 10%
percent of apoptotic cells by flow cytometry ([5]; 3 h, Control 16): 10%
percent of apoptotic cells by flow cytometry ([5]; 6 h, Control 33): 7%

Substance: TAT-ICD: fusion recombinant protein SEQ ID 5: PTPRG intracellular domain aa 797-1445 fused to 13 aa TAT sequence
percent of apoptotic cells ([1]; 1 hour, Control 10): 67%
percent of apoptotic cells ([1]; 3 hours, Control 3): 60%
percent of apoptotic cells ([1]; 6 hours, Control 14): 70%
percent of apoptotic cells (early apoptosis) ([2]; TAT-ICD 0.5 uM, 6 hr, CTRL 4.6): 2.6%
percent of apoptotic cells (early apoptosis) ([2]; TAT-ICD 0.5 uM, 9 hr, CTRL 6.0): 14.0%
percent of apoptotic cells (early apoptosis) ([2]; TAT-ICD 0.5 uM, 24 hr, CTRL 7.0): 21.0%
percent of apoptotic cells (early apoptosis) ([2]; TAT-ICD 1 uM, 6 hr, CTRL 4.6): 6.0%
percent of apoptotic cells (early apoptosis) ([2]; TAT-ICD 1 uM, 9 hr, CTRL 6.0): 17.0%
percent of apoptotic cells (early apoptosis) ([2]; TAT-ICD 1 uM, 24 hr, CTRL 7.0): 25.0%
percent of apoptotic cells (early apoptosis) ([2]; TAT-ICD 2 uM, 6 hr, CTRL 4.6): 15.0%
percent of apoptotic cells (early apoptosis) ([2]; TAT-ICD 2 uM, 9 hr, CTRL 6.0): 25.0%
percent of apoptotic cells (early apoptosis) ([2]; TAT-ICD 2 uM, 24 hr, CTRL 7.0): 30.0%
absorbance in the MTT assay ([3]; TAT-ICD 0.5 μM, 24 hours, CTRL 971): 921
absorbance in the MTT assay ([3]; TAT-ICD 0.5 μM, 48 hours, CTRL 1305): 1301
absorbance in the MTT assay ([3]; TAT-ICD 0.5 μM, 72 hours, CTRL 1481): 1061
absorbance in the MTT assay ([3]; TAT-ICD 1 μM, 24 hours, CTRL 971): 745
absorbance in the MTT assay ([3]; TAT-ICD 1 μM, 48 hours, CTRL 1305): 947
absorbance in the MTT assay ([3]; TAT-ICD 1 μM, 72 hours, CTRL 1481): 935
absorbance in the MTT assay ([3]; TAT-ICD 2 μM, 24 hours, CTRL 971): 552
absorbance in the MTT assay ([3]; TAT-ICD 2 μM, 48 hours, CTRL 1305): 687
absorbance in the MTT assay ([3]; TAT-ICD 2 μM, 72 hours, CTRL 1481): 625
absorbance in the MTT assay ([4]; 0.1 uM, 24 hours, Control 1116): 1115
absorbance in the MTT assay ([4]; 0.1 uM, 48 hours, Control 1022): 989
absorbance in the MTT assay ([4]; 0.1 uM, 72 hours, Control 994): 1074
absorbance in the MTT assay [4, 7]: 928
absorbance in the MTT assay [4, 8]: 923
absorbance in the MTT assay ([4]; 0.25 uM, 72 hours, Control 994): 1204
absorbance in the MTT assay ([4]; 0.5 uM, 24 hours, Control 1116): 1164
absorbance in the MTT assay ([4]; 0.5 uM, 48 hours, Control 1022): 1109
absorbance in the MTT assay ([4]; 0.5 uM, 72 hours, Control 994): 1376
percent of apoptotic cells by flow cytometry ([5]; 1 h, Control 14): 25%
percent of apoptotic cells by flow cytometry ([5]; 3 h, Control 16): 40%
percent of apoptotic cells by flow cytometry ([5]; 6 h, Control 33): 70%

phosphatase activity, absorbance at 405 nm as percent fold increase over the blank ([6]; P1-WD 50 micromolar): 34.62* %
phosphatase activity, absorbance at 405 nm as percent fold increase over the blank ([6]; P1-WD 100 micromolar): 86.70* %
phosphatase activity, absorbance at 405 nm as percent fold increase over the blank ([6]; P1-WD 200 micromolar): 109.00* %
Substance: P1-WD: fusion Trojan peptide SEQ ID 3: Penetratin, glycine, PTPRG wedge domain aa 831-856; RQIKIWFQNRRMKWKKGKQFVKHIGELYSNNQHGFSEDFEEVQ (listed as Homo sapiens)
percent of apoptotic cells (early apoptosis) ([2]; P1-WD 10 μM, 6 h, Control 5): 13%
percent of apoptotic cells (early apoptosis) ([2]; P1-WD 10 μM, 9 h, Control 12): 21%
percent of apoptotic cells (early apoptosis) ([2]; P1-WD 10 μM, 24 h, Control 8): 25%
percent of apoptotic cells (early apoptosis) ([2]; P1-WD 25 μM, 6 h, Control 5): 21%
percent of apoptotic cells (early apoptosis) ([2]; P1-WD 25 μM, 9 h, Control 12): 30%
percent of apoptotic cells (early apoptosis) ([2]; P1-WD 25 μM, 24 h, Control 8): 30%
percent of apoptotic cells (early apoptosis) [2, 9]: 33%
percent of apoptotic cells (early apoptosis) [2, 10]: 40%
percent of apoptotic cells (early apoptosis) [2, 11]: 40%
absorbance in the MTT assay ([3]; P1-WD 10 μM, 24 hours, Control 971): 629
absorbance in the MTT assay ([3]; P1-WD 10 μM, 48 hours, Control 1305): 854
absorbance in the MTT assay ([3]; P1-WD 10 μM, 72 hours, Control 1481): 985
absorbance in the MTT assay ([3]; P1-WD 25 μM, 24 hours, Control 971): 555
absorbance in the MTT assay ([3]; P1-WD 25 μM, 48 hours, Control 1305): 697
absorbance in the MTT assay ([3]; P1-WD 25 μM, 72 hours, Control 1481): 835
absorbance in the MTT assay [3, 12]: 540
absorbance in the MTT assay [3, 13]: 744
absorbance in the MTT assay [3, 14]: 842

Substance: P1: Penetratin delivery peptide, 16 aa RQIKIWFQNRRMKWKK (SEQ ID 4), control [reference compound]
percent of apoptotic cells (early apoptosis) [2, 9]: 8%
percent of apoptotic cells (early apoptosis) [2, 10]: 15%
percent of apoptotic cells (early apoptosis) [2, 11]: 15%
absorbance in the MTT assay [3, 12]: 1113
absorbance in the MTT assay [3, 13]: 1019
absorbance in the MTT assay [3, 14]: 1111
phosphatase activity, absorbance at 405 nm as percent fold increase over the blank ([6]; control peptide, concentration not given): 16.00%
